# Measurements published in patent US20200000752A1, “Method for Treating Epilepsy” (Vanderbilt University, priority 2016, published 2020).
# How the values were obtained:
# [1] = test system: mutant GABAA α1β2γ2(R82Q) receptors; assay: Expression of mutant α1β2γ2(R82Q) receptor subunits in HEK 293T cells (SDS-PAGE immunoblot); type: cell-based
# Method: HEK 293T cells were transfected with α1, […] and the mutant γ2(R82Q) subunits at 1:1:1 cDNA ratio for 48 hrs. […] (FIG. 20A). Total cell lysates were analyzed by SDS-PAGE and the membrane was immunoblotted against al or γ2 subunits. (FIG. 20A). Protein IDVs of al or γ2 subunits were normalized to the cells without treatment (0) (FIG. 20B).
# [2] = test system: cytochrome P450 enzymes (CYPs); settings: cited from earlier work
# [3] = test system: Scn1a^+/− mice; assay: Survival and seizure activity in Scn1a+/- mice after 1 month off celastrol; type: in vivo, mouse; settings: 0.3 mg/kg 14 d on and 1 month off
# From the text: Intermittent dosing will greatly increase compliance and reduce side effects for long-term treatment. However, it is necessary to determine the duration the efficacy lasts after certain doses and the duration it takes to recover to baseline.
# [4] = Brain and plasma concentration of celastrol in mice (IP, oral gavage)
# From the text: For chronic dosing, samples were collected 2 hrs after drug administration.
# Blood samples for drug bioanalysis will be collected in EDTA plasma tubes, immediately centrifuged, and the plasma fraction frozen at −80 C until analysis. Whole brains will also be frozen until analysis. […] Study samples, standards, and quality control samples will be precipitated with acetonitrile containing an internal standard, centrifuging the samples, and then injecting the supernatant onto a reverse phase LC/MS/MS system. Assay performance will be checked with retention time, peak shape, and quality control samples. The free drug concentration from animal studies will be calculated by multiplying the in vitro plasma free fraction (funbound) by the determined plasma concentrations. […] GABAA receptor subunits, AKT and neuronal survival signaling molecules, heat shock protein and synaptic scaffold proteins will be the focus.
# [5] = target: CYP 2D6 (Homo sapiens, UniProt P10635); assay: biochemical
# CYP 2D6, sequence (P10635 whole entry): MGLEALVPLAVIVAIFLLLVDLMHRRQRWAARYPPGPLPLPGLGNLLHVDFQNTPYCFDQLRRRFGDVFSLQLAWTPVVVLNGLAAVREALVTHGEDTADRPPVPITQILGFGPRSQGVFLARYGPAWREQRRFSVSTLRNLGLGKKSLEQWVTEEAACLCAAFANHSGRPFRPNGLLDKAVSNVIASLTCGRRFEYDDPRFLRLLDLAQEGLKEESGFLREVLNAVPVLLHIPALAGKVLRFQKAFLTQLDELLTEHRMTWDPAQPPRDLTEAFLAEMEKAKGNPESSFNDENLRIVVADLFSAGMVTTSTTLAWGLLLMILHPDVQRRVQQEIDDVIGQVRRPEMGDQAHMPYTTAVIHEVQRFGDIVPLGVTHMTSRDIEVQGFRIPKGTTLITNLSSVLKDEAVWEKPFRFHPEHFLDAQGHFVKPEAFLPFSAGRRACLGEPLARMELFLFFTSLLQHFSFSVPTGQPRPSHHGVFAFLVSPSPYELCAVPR
# [6] = test system: AppSWE/PsenIdE9 mice; settings: mouse, in vivo; cited from earlier work
# [7] = test system: Scn1a^+/− mice; assay: Early intermittent dosing, survival of Scn1a+/- mice; type: in vivo, mouse; settings: 0.3 mg/kg intermittent from postnatal day 7; untreated ~60% mortality by week 7
# From the text: (FIG. 5B, C). Gabrg2^+/Q390X mice in C57/BL/6J background had ˜25% of mortality (B) while Scn1a^+/− mice in C57/BL/6J background had ˜60% of mortality by week 7 (C). […] The Gabrg2^+/Q390X mice were in C57/BL/6J background while Scn1a^+/− sires were from mixed S129/C57BL/6J and the dams were congenic C57/BL/6J. For each mouse model, heterozygous pups of both male and female from 6-8 litters were included.
# [8] = test system: cultured cortical neurons from the wild-type mouse brains; assay: Neuronal viability, trypan blue exclusion; type: cell-based; settings: 0-8 μm for 4 hours, at the therapeutic levels
# Method: The neuronal viability was determined with membrane integrity by trypan blue exclusion method^12. The mean survival was determined by counting eight randomly selected, non-overlapping fields with each containing approximately 10-20 neurons (viable+nonviable) (n=4 different cultures). GABAAR expression was determined by the high-throughput flow cytometry. HEK 293T cells were transfected with human α1, β2 and γ2 subunit cDNAs at 1:1:1 ratio for 48 hours. The α1 subunit was chosen as readout. The anti-α1 antibody was directly conjugated with Alexa 488 (data are mean±SEM, n=4). The healthy population was gated.
# [9] = test system: seizure activity; assay: Oral gavage for 2 weeks, seizure threshold and seizure activity; type: in vivo, mice; settings: oral gavage 3 mg/kg for 2 weeks
# [10] = test system: AKT, active caspase 3; assay: P-AKT immunoblot and active caspase 3 staining in cells and Gabrg2+/Q390X mice; design: species or system mouse
# Method: Total lysates from HEK 293T cells expressing the wild-type (wt) or the mutant α1β2γ2(Q390X) (mut) receptors (FIG. 17A) or from Gabrg2^+/Q390X mouse cortex (17B) were analyzed by SDS-PAGE. The membranes were immunoblotted with the phosphorylated AKT (P-AKT). FIG. 17C. Paraffin-embedded brain sections from 1 year old wild-type (wt) and heterozygous Gabrg2^+/Q390X (het) mice were stained with the active form of caspase 3 (green) and NeuN (red). The cell nuclei were stained with TO-PRO-3 (blue).
# [11] = Hepatic microsomal clearance (human); type: in vitro ADME; settings: liver microsomes, pH 7.4
# Method: Intrinsic clearance and predicted hepatic clearance: Intrinsic clearance will be determined using the substrate depletion approach. Reactions (0.3 mL) will be conducted using a Tecan EVO (San Jose, Calif.) in 96-well polypropylene cluster tubes with a temperature controlled water-jacketed aluminum plate holder held at 37° C. Incubations will be performed in triplicate in 0.1 M potassium phosphate buffer (pH 7.4), 3 mM MgCl2, 1 μM tizanidine, and 1 mg/mL liver microsomes. After incubation mixtures are equilibrated for 3 min at 37° C., reactions will be initiated with 10 mM NADPH to give a final NADPH concentration of 1 mM. At 0, 3, 7, 15, 25, and 45 min, a 25 μL aliquot will be removed from the reactions and delivered into 125 μL of acetonitrile containing an internal standard. The quench plates will then be centrifuged at 3,000×g for 10 min and an aliquot of the supernatants added to an injection plate with an equal volume of water. Samples will then be analyzed using LC/MS/MS.
# Intrinsic clearance is calculated as: […]
# Species-specific parameters for mouse and human liver protein content will be used. The predicted hepatic clearance will then be estimated using species-specific liver blood flow values: […]
# [12] = test system: Gabrg2^+/Q390X mice; assay: Barnes maze, Gabrg2+/Q390X mice; type: in vivo, mouse; settings: 0.3 mg/kg IP for 2 weeks, 2-4 months old
# Method: Flow chart in FIG. 13A depicts an overview of the Barnes maze. In training trials which are considered as learning test, time spent to locate the target hole was recorded and quantified for each day in each mouse genotype. In probe trials which are considered as memory test, an hour after the last training trial, each mouse was allotted a 300 sec session to find the target hole. […]. The total time spent at each of the 12 holes was assessed.
# [13] = test system: Scn1a^+/− mice
# [14] = test system: PI3K/AKT pathway; assay: PI3K/AKT pathway activation in vitro; type: cell-based
compound,measurement,setting,value
"CC1=C(O)C(=O)C=C2C1=CC=C1[C@@]2(C)CC[C@@]2(C)[C@@H]3C[C@](C)(C(=O)O)CC[C@]3(C)CC[C@]12C [Celastrol, 3-Hydroxy-9β,13α-dimethyl-2-oxo-24,25,26-trinoroleana-1(10),3,5,7-tetraen-29-oic acid]",expression of mutant α1β2γ2(R82Q) receptors,[1]; applied 4 hrs before harvest,increased
same,"enhancing GABAA receptor subunit expression, comparison","[1]; different concentrations, 4 hrs",more effective in enhancing GABAA receptor subunit expression than Stiripentol
same,CYP inhibition as reported in the literature,[2],inhibits several CYP enzymes
same,seizure duration after PTZ,[3],shortened seizure duration
same,seizure onset after PTZ,[3],delayed seizure onset
same,seizure severity after PTZ,[3],reduced seizure severity
same,survival,[3]; vs untreated littermates,increased survival
same,celastrol concentration in the mouse brain,[4]; level with good efficacy,120-150 nm
same,Kp at 24 h,"[4]; mouse, brain, intraperitoneal, 0.3 mg/kg",> 1.2
same,concentration at 2 h,"[4]; mouse, brain, po, 3 mg/kg",0.121 µM
same,IC50,[5],> 10 µM
same,memory,[6],improve memory
same,survival,[7],completely rescued the survival
same,cell viability,[8],no reduced cell viability
same,seizure threshold and seizure activity,[9],increasing seizure threshold and reducing seizure activity
same,active caspase 3,[10]; 0.3 mg/kg IP 2 weeks,Reducing Active Caspase 3
same,AKT (P-AKT),"[10]; 0.3 mg/kg IP 2 weeks in mice, HEK 293T cells",Activating AKT
same,CLint scaled,[11],1.86 L/h/kg
same,time spent at target hole in probe trial,[12],spent more time in the target hole area
same,Number SWDs,"[13]; SWDs over 1 sec, 30 min after PTZ 50 mg/kg, n=2, celastrol 0.3 mg/kg intermittent (8th day of drug holiday), diazepam 0.3 mg/kg, stiripentol 150 mg/kg, saline 21",2
same,efficacy in reducing seizure severity versus comparators,[13]; chronic intermittent dosing 0.3 mg/kg IP,Better Efficacy in Reducing Seizure Severity than Diazepam or Stiripentol
same,PI3K/AKT pathway,[14],activate PI3K/AKT pathway
